Structures can show the parent of a compound that is named as a salt. Where two headings read alike, the source gives them in different places.
Legend:
tau phosphorylation = test: Ability to modify levels of tau phosphorylation in primary culture of cerebellar granule neurons and/or brain cortex (Western Blot, Tau 1, PHF1); format: cell-based, mice; conditions: CGN or brain cortex neurons
Protocol: a)—Mouse cortex neurons: brains were obtained from 16-18-day old embryos. The two hemispheres, olfactory bulbs and brain stem were separated. The meninges were removed and the cut tissue was transferred to a 50 ml flask. 10 ml HBSS without Ca without Mg (without phenol red) were added. Two further washings with 3 ml HBSS were performed and digestion was performed with Trypsin-DNase at 37° C. The suspension was broken up by passing the material through glass pipettes with different thicknesses. The cells were cut and cultured in Dulbecco's Modified Eagle's medium (DMEM)+10% FCS. After 3 hours the final medium was placed in Neurobasal medium+B27 Supplement+KCl+glutamine+antibiotics.
(§1) b) CGN: Cerebellar granule neurons derived from wild-type or transgenic mice were obtained from 6-day old mice. The basic process was similar to the previous one: obtaining and breaking up the tissue was similar and culturing and maintaining in final media was identical. The cerebellum was broken up by treatment with trypsin-EDTA for about 15-20 min and subsequently cultured in plates treated with Poly-L-Lysine (50 micrograms/m1). The neurons were maintained in a serum-free medium, Neurobasal medium+B27 Supplement+KCl+glutamine+antibiotics.
Ability to Modify Levels of Tau Phosphorylation in Primary Culture of Cerebellar Granule Neurons (CGN) and/or Brain Cortex Derived from Mice (Wild Strain)
The data was obtained in relation to the mean of 3 independent experiments of the relative level of tau-1 in soluble cell extracts obtained from cerebellar granule or brain cortex neurons treated with the indicated compounds. The ability to modify the level of tau phosphorylation in cortex neurons or cerebellar granule of […] was analyzed through Western Blot using specific antibodies in a series of fosfo-epitopes (Tau 1, PHF1) after 1, 2 and 3 incubation hours. Actine was used as reference (indicator of the total mass).

cell line CHO-APP-PS1 = test: Toxicity and cell viability in cultures of cell line CHO-APP-PS1; format: cell-based, Chinese hamster
Protocol: The cell viability of different strains was studied in the presence of the compounds of the invention. […] In the toxicity assays, the cells (whether neurons or established lines) were seeded in 24-well plates and exposed to different concentrations of the drug in Dulbecco's Modified Eagle's medium (DMEM)+10% FCS or in the Neurobasal medium+B27 Supplement+KCl+glutamine+antibiotics when primary neurons were used. The treatments were stopped after 24 or 48 hours by fixing the cells with 4% paraformaldehyde for 30 minutes. The fixed cells were stained with 0.2% Coomassie Brilliant blue R-250 in 10% acetic acid/40% methanol for 1 hour at ambient temperature. The stained cells were washed thoroughly with distilled water, and once dried the incorporated dye was extracted with 0.1 N NaOH in 50% methanol. Then it was acidified with 10% trichloroacetic acid and the number of cells was measured in an Elisa reader, with absorbance at 595 nm. DMSO (10 μl/well) was used as a control. […] The medium was collected for 6 hours, and then it was diluted 5 times and analyzed in duplicate using a Biosource ELISA kit (h 1-40 βAmyloid—Ref #KHB3482).

[1] = test system: primary cultures of CGN (cerebellar granule neurons); test: Toxicity and cell viability in primary cultures of CGN; format: cell-based, mice; conditions: 24 or 48 hours, Coomassie staining, absorbance at 595 nm
Protocol: as §1
The cell viability of different strains was studied in the presence of the compounds of the invention. […] In the toxicity assays, the cells (whether neurons or established lines) were seeded in 24-well plates and exposed to different concentrations of the drug in Dulbecco's Modified Eagle's medium (DMEM)+10% FCS or in the Neurobasal medium+B27 Supplement+KCl+glutamine+antibiotics when primary neurons were used. The treatments were stopped after 24 or 48 hours by fixing the cells with 4% paraformaldehyde for 30 minutes. The fixed cells were stained with 0.2% Coomassie Brilliant blue R-250 in 10% acetic acid/40% methanol for 1 hour at ambient temperature. […] Then it was acidified with 10% trichloroacetic acid and the number of cells was measured in an Elisa reader, with absorbance at 595 nm. […]

[2] = at 5 and/or 10 micromolar, relative level of tau-1
[3] = relative level of tau-1 in soluble cell extracts, mean of 3 experiments

| SMILES | ability to modify the level of tau phosphorylation (tau phosphorylation; [2]) | further results |
| --- | --- | --- |
| Clc1ccc(/C=C(\c2ccccc2)C2CCNCC2)cc1 [COMPOUND 36, (Z)-4-[(1-phenyl)-2-(4-chlorophenyl)ethen-1-yl]piperidine] | modify tau phosphorylation | – |
| Fc1ccc(OC(CC2CCNCC2)c2ccccc2)cc1 (stereo not drawn) [COMPOUND 27] | modify tau phosphorylation | – |
| Fc1ccccc1OC(c1ccccc1)C1CCNCC1 (stereo not drawn) [COMPOUND 21] | modify tau phosphorylation | – |
| Clc1ccc(OC(c2ccccc2)C2CCNCC2)cc1Cl (stereo not drawn) [COMPOUND 34] | modify tau phosphorylation | – |
| c1ccc(-c2ccccc2OC(c2ccccc2)C2CCNCC2)cc1 (stereo not drawn) [COMPOUND 40] | modify tau phosphorylation | – |
| Fc1ccc(OC(CC2CCNCC2)c2ccc(F)cc2)cc1 (stereo not drawn) [COMPOUND 24] | modify tau phosphorylation | – |
| FC(F)(F)c1ccccc1OC(c1ccccc1)C1CCNCC1 (stereo not drawn) [COMPOUND 29] | modify tau phosphorylation | – |
| c1ccc(C(Oc2cccc3ccccc23)C2CCNCC2)cc1 (stereo not drawn) [COMPOUND 35] | modify tau phosphorylation | – |
| Ic1cccc(OC(c2ccccc2)C2CCNCC2)c1 (stereo not drawn) [COMPOUND 3] | – | toxicity (cell viability) (cell line CHO-APP-PS1): none of them giving rise to statistically relevant toxicity levels; ability to modify the level of tau phosphorylation (tau phosphorylation; [3]): modify tau phosphorylation |
| Fc1cc(COc2ccc3c(c2)OCO3)cc(OC(c2ccccc2)C2CCNCC2)c1 (racemic) [COMPOUND 32, hydrochloride] | modify tau phosphorylation | – |
| Clc1ccc(C(Oc2cccc3ccccc23)C2CCNCC2)cc1 (racemic) [COMPOUND 31, (+/−)-4-[(Naphthalen-1-oxy)(4-chlorophenyl)methyl]piperidine hemisulphate] | modify tau phosphorylation | toxicity (cell viability) [1]: somewhat toxic only at certain concentrations |
| Cc1ccc(Cl)cc1OC(c1ccccc1)C1CCNCC1 (stereo not drawn) [COMPOUND 10] | – | toxicity (cell viability) (cell line CHO-APP-PS1; cultures of cell line CHO-APP-PS1, 24 or 48 hours, Coomassie staining, absorbance at 595 nm): none of them giving rise to statistically relevant toxicity levels; ability to modify the level of tau phosphorylation (tau phosphorylation; [3]): modify tau phosphorylation |
| NCCN1CCC(C(Oc2cccc(F)c2)c2ccccc2)CC1 (racemic) [COMPOUND 37, (+/−)-4-[(3-fluorophenoxy)phenylmetyl]piperidin-1-yl]ethylamine oxalate] | modify tau phosphorylation | toxicity (cell viability) [1]: somewhat toxic only at certain concentrations |
| FC(F)(F)c1ccc(OC(c2ccccc2)C2CCNCC2)cc1 (stereo not drawn) [COMPOUND 41] | modify tau phosphorylation | – |
